Source: ChEMBL document CHEMBL4251606, “Design and characterization of α-lipoic acyl shikonin ester twin drugs as tubulin and PDK1 dual inhibitors” (Eur J Med Chem, 2018)
Activity calls are given as the source filed them. The calls are words filed in the database; no cut-off is given here.

What was measured:
HeLa [1] = experiment: Induction of apoptosis in human HeLa cells assessed as late apoptotic cells by measuring FL3-H+ cells at 5.6 uM after 24 hrs by propidium iodide staining-based FACScan flow cytometric analysis (reference value: 2.14%); format: functional
Mus musculus = experiment: Toxicity in nude mouse xenografted with human HeLa cells assessed as loss in body weight at 0.5 to 2 mg/kg, ip administered once in every 2 days for 15 days; format: organism-based; conditions: in vivo
[2] = biological target: [Pyruvate dehydrogenase (acetyl-transferring)] kinase isozyme 1, mitochondrial (Homo sapiens) (UniProt Q15118); experiment: Inhibition of PDK1 in human HeLa cells assessed as decrease in PDH-E1 alpha p-ser300 expression up to 8 uM by Western blot analysis; format: cell-based
HeLa [3] = experiment: Induction of apoptosis in human HeLa cells assessed as viable cells at 6 uM after 12 hrs by Annexin V-APC/propidium iodide staining-based FACScan flow cytometric analysis (reference value: 93%); format: functional; conditions: read-out: Activity
HeLa [4] = experiment: Induction of apoptosis in human HeLa cells assessed as early apoptotic cells at 2 uM after 24 hrs by Annexin V-APC/propidium iodide staining-based FACScan flow cytometric analysis (reference value: 6.46%); format: functional
HeLa [5] = experiment: Induction of apoptosis in human HeLa cells assessed as late apoptotic cells at 6 uM after 36 hrs by Annexin V-APC/propidium iodide staining-based FACScan flow cytometric analysis (reference value: 3.84%); format: functional
HeLa [6] = experiment: Induction of apoptosis in human HeLa cells assessed as viable cells at 6 uM after 24 hrs by Annexin V-APC/propidium iodide staining-based FACScan flow cytometric analysis (reference value: 93%); format: functional; conditions: read-out: Activity
HeLa [7] = experiment: Induction of apoptosis in human HeLa cells assessed as early apoptotic cells at 6 uM after 12 hrs by Annexin V-APC/propidium iodide staining-based FACScan flow cytometric analysis (reference value: 2.45%); format: functional
HeLa [8] = experiment: Induction of apoptosis in human HeLa cells assessed as decrease in Bcl2 expression up to 8 uM after 24 hrs by Western blot analysis; format: functional, cell-based
HeLa [9] = experiment: Reduction in lactate production in human HeLa cells at 2 to 8 uM; format: functional, cell-based
HeLa [10] = experiment: Cell cycle arrest in human HeLa cells assessed as accumulation of cells at G1 phase at 2 uM after 24 hrs by propidium iodide staining-based FACScan flow cytometric analysis (reference value: 62.92%); format: functional
HeLa [11] = experiment: Induction of apoptosis in human HeLa cells assessed as late apoptotic cells at 4 uM after 24 hrs by Annexin V-APC/propidium iodide staining-based FACScan flow cytometric analysis (reference value: 7.22%); format: functional
HeLa [12] = experiment: Induction of apoptosis in human HeLa cells assessed as early apoptotic cells at 4 uM after 24 hrs by Annexin V-APC/propidium iodide staining-based FACScan flow cytometric analysis (reference value: 6.46%); format: functional
HeLa [13] = experiment: Induction of apoptosis in human HeLa cells assessed as late apoptotic cells by measuring FL3-H+ cells at 6 uM after 36 hrs by propidium iodide staining-based FACScan flow cytometric analysis (reference value: 2.13%); format: functional
HeLa [14] = experiment: Induction of mitochondrial membrane potential loss in human HeLa cells assessed as cells with high membrane potential at 4 uM after 12 hrs by JC-1 staining-based flow cytometric analysis (reference value: 85.8%); format: functional
HeLa [15] = experiment: Antitumor activity against human HeLa cells xenografted in nude mouse assessed as reduction in tumor size at 2 mg/kg, ip administered once in every 2 days for 15 days relative to control; format: functional
MDA-MB-231 = experiment: Antiproliferative activity against human MDA231 cells after 24 hrs by MTT assay; format: functional, cell-based; conditions: MDA-MB-231, 24 h
HeLa [16] = experiment: Induction of apoptosis in human HeLa cells assessed as viable cells at 4 uM after 24 hrs by Annexin V-APC/propidium iodide staining-based FACScan flow cytometric analysis (reference value: 85.1%); format: functional; conditions: read-out: Activity
HeLa [17] = experiment: Inhibition of microtubule polymerization in human HeLa cells at 4 uM after 24 hrs by rhodamine/DAPI staining-based confocal microscopic analysis; format: cell-based
HeLa [18] = experiment: Antiproliferative activity against human HeLa cells after 24 hrs by MTT assay; format: functional, cell-based
HeLa [19] = experiment: Induction of apoptosis in human HeLa cells assessed as early apoptotic cells at 1 uM after 24 hrs by Annexin V-APC/propidium iodide staining-based FACScan flow cytometric analysis (reference value: 6.46%); format: functional
HeLa [20] = experiment: Induction of apoptosis in human HeLa cells assessed as necrotic cells at 1 uM after 24 hrs by Annexin V-APC/propidium iodide staining-based FACScan flow cytometric analysis (reference value: 1.18%); format: functional
HeLa [21] = experiment: Cell cycle arrest in human HeLa cells assessed as accumulation of cells at G2/M phase at 2 uM after 24 hrs by propidium iodide staining-based FACScan flow cytometric analysis (reference value: 16.82%); format: functional
HeLa [22] = experiment: Induction of apoptosis in human HeLa cells assessed as necrotic cells at 4 uM after 24 hrs by Annexin V-APC/propidium iodide staining-based FACScan flow cytometric analysis (reference value: 1.18%); format: functional
A549 = experiment: Antiproliferative activity against human A549 cells after 24 hrs by MTT assay; format: functional, cell-based; conditions: A549, 24 h
HeLa [23] = experiment: Induction of apoptosis in human HeLa cells assessed as late apoptotic cells by measuring FL3-H+ cells at 1.4 uM after 24 hrs by propidium iodide staining-based FACScan flow cytometric analysis (reference value: 2.14%); format: functional
HeLa [24] = experiment: Induction of apoptosis in human HeLa cells assessed as viable cells at 6 uM after 36 hrs by Annexin V-APC/propidium iodide staining-based FACScan flow cytometric analysis (reference value: 93%); format: functional; conditions: read-out: Activity
HeLa [25] = experiment: Induction of apoptosis in human HeLa cells assessed as viable cells at 1 uM after 24 hrs by Annexin V-APC/propidium iodide staining-based FACScan flow cytometric analysis (reference value: 85.1%); format: functional; conditions: read-out: Activity
HeLa [26] = experiment: Induction of apoptosis in human HeLa cells assessed as late apoptotic cells at 1 uM after 24 hrs by Annexin V-APC/propidium iodide staining-based FACScan flow cytometric analysis (reference value: 7.22%); format: functional
HeLa [27] = experiment: Induction of mitochondrial membrane potential loss in human HeLa cells assessed as increase in green fluorescence at 2 to 4 uM by JC-1 staining-based fluorescence microscopic analysis; format: functional, cell-based
HeLa [28] = experiment: Induction of apoptosis in human HeLa cells assessed as increase in caspase-3 cleavage up to 8 uM after 24 hrs by Western blot analysis; format: functional, cell-based
HepG2 = experiment: Antiproliferative activity against human HepG2 cells after 24 hrs by MTT assay; format: functional, cell-based; conditions: HepG2, 24 h
HeLa [29] = experiment: Induction of apoptosis in human HeLa cells assessed as necrotic cells at 6 uM after 36 hrs by Annexin V-APC/propidium iodide staining-based FACScan flow cytometric analysis (reference value: 0.725%); format: functional
HeLa [30] = experiment: Cell cycle arrest in human HeLa cells assessed as accumulation of cells at S phase at 2 uM after 24 hrs by propidium iodide staining-based FACScan flow cytometric analysis (reference value: 20.16%); format: functional
HeLa [31] = experiment: Induction of apoptosis in human HeLa cells assessed as late apoptotic cells by measuring FL3-H+ cells at 2.8 uM after 24 hrs by propidium iodide staining-based FACScan flow cytometric analysis (reference value: 2.14%); format: functional

CC(C)=CC[C@@H](OC(=O)CCCC[C@@H]1CCSC(c2ccccc2)S1)C1=CC(=O)c2c(O)ccc(O)c2C1=O (stereo not given in full)
Activity (HeLa [1]): 85.2% | Activity (Mus musculus): Non-Toxic | inhibition [2]: Active | viability at 6 µM (HeLa [3]): 48.8% | Activity (HeLa [4]): 15.5% | Activity (HeLa [5]): 22.9% | viability at 6 µM (HeLa [6]): 29.1% | Activity (HeLa [7]): 19% | Activity (HeLa [8]): Active | Activity (HeLa [9]): Active | Activity (HeLa [10]): 50.96% | Activity (HeLa [11]): 58.4% | Activity (HeLa [12]): 6.67% | Activity (HeLa [13]): 55.2% | Activity (HeLa [14]): 10.3% | fold change (FC) (HeLa [15]): 5 | IC50 (MDA-MB-231): 17.7 µM | viability at 4 µM (HeLa [16]): 18.1% | inhibition (HeLa [17]): Active | IC50 (HeLa [18]): 3.14 µM | Activity (HeLa [19]): 15.8% | Activity (HeLa [20]): 4.46% | Activity (HeLa [21]): 32.67% | Activity (HeLa [22]): 16.9% | IC50 (A549): 16.4 µM | Activity (HeLa [23]): 30.1% | viability at 6 µM (HeLa [24]): 26.4% | viability at 1 µM (HeLa [25]): 37% | Activity (HeLa [26]): 42.7% | Activity (HeLa [27]): Active | Activity (HeLa [28]): Active | IC50 (HepG2): 5.37 µM | Activity (HeLa [29]): 5.03% | Activity (HeLa [30]): 16.37% | Activity (HeLa [31]): 37.5%
